What all share (assay type): cell-based, human
The test system of assay [1] is NK1R (neurokinin 1 receptor) gene. Kind of assay: Gene expression assay by real-time PCR: NK1R gene in melanocytes. Particulars: melanocytes (KaMC), 2 nM substance P, 5 days; relative to GAPDH, control group = 1. The procedure: (§1) Melanocytes (KaMC; KCTC 12015BP) deposited in the Korean Collection for Type Culture (KCTC) were cultured in M-254 medium (Gibco BRL, N.Y., USA) supplemented with Human Melanocyte Growth Supplement (HMGS; Gibco BRL, N.Y., USA) on a 6-well plate, while changing the medium every other day, in a 5% CO2 incubator at 37° C. until the cells occupied 95% of the plate area (95% confluence). […] The cells not treated with substance P or the masterwort (Peucedanum ostruthium) extract of Example 1 were used as a control group. After removing the medium form the melanocytes cultured on the 6-well plate, the cells were washed 2 times with cold phosphate-buffered saline (PBS) and the remaining water was completely removed. […] 1 μL of the RNA was quantified using Synergy II (Biotek, USA). […] After adding 10 μL of Taqman Gene Expression Master Mix (Life Technologies, USA) and 1 μL of Assays-on-DemandTM (Life Technologies, USA) of NK1 R (ACCESSION: NM_001058) and EDN1 (ACCESSION: NM_001168319) genes to 9 μL of the diluted cDNA, the expression of the genes was analyzed by relative quantification using 7500 Fast Real-Time PCR (Life Technologies, USA) with glyceraldehyde 3-phosphate dehydrogenase (GAPDH, ACCESSION: NM001256799) as a control gene. […]

For another assay, the system named is EDN1 (endothelin 1) gene. Kind of assay: Gene expression assay by real-time PCR: EDN1 gene in melanocytes. The following applies: melanocytes (KaMC), 2 nM substance P, 5 days; relative to GAPDH, control group = 1. The procedure:
as §1

For another assay, the system named is endothelin 1 (EDN1). Kind of assay: Endothelin 1 ELISA assay of culture medium of melanocytes. Particulars: melanocytes (KaMC) medium, 2 nM substance P; absorbance/total protein, control group = 100%. The method, then:
When the density of the melanocytes on the 6-well plate reached about 80% (˜80% confluence), they were incubated for a total of 5 days with 2 nM of stress-inducing substance P (Bachem Fechemikalien, Bubendorf, Switzerland) or the masterwort (Peucedanum ostruthium) extract of Example 1 of different concentrations (0, 0.1, 1, 2 and 5 ppm). The cells not treated with substance P or the masterwort (Peucedanum ostruthium) extract of Example 1 were used as a control group.
The culture medium of the cells treated with the extract in (2) of Test Example 1 were recovered and the amount of endothelin 1 (EDN1) comprised in the medium was measured at 450 nm using the human total endothelin ELISA kit (MyBioSource, USA).
Endothelin content (%)=(Absorbance/Total protein)×100 Equation 1

Results on one molecule are retold here after patent US20170182104A1, “COMPOSITION CONTAINING MASTERWORT EXTRACT” (AMOREPACIFIC CORPORATION, priority 2014, published 2017).

SMILES strings stand for the structures.

Turning to `CSCC[C@H](NC(=O)[C@H](CC(C)C)NC(=O)CNC(=O)[C@H](Cc1ccccc1)NC(=O)[C@H](Cc1ccccc1)NC(=O)[C@H](CCC(N)=O)NC(=O)[C@H](CCC(N)=O)NC(=O)[C@@H]1CCCN1C(=O)[C@H](CCCCN)NC(=O)[C@@H]1CCCN1C(=O)[C@@H](N)CCCN=C(N)N)C(N)=O` [substance P], the “expression of the NK1R gene” value in assay [1] was determined as 4.2. In the assay on EDN1 (endothelin 1) gene, the “expression of the EDN1 gene” value was 3.6. The “content of endothelin 1” value in the assay with endothelin 1 (EDN1) came out at 124%.
